≈ marks a conversion by molar mass, not a printed value. Where two headings read alike, the source gives them in different places.
Experiments:
[1] = test system: adult male C57BL6/J mice; experiment: Open field test; assay type: in vivo; details: OFT, compared to vehicle (water)
[2] = traditional octanol water partition coefficient determination
[3] = test system: scabies mites; experiment: Scabies mite mortality; details: at 8 h; same concentration as benzyl benzoate
[4] = Chemical stability on storage; assay type: physicochemical; details: stored at 8 °C for approximately two years, 1H NMR analysis
[5] = test system: breast cancer (MCF7) cell line; experiment: Activity against breast cancer cell line; assay type: cell-based; details: for IC50: MCF7 breast cancer cell line
[6] = test system: mouse; details: earlier in vivo mouse studies; cited from earlier work
[7] = test system: melanoma (MM96L) cell line; experiment: Activity against melanoma cell line; assay type: cell-based
[8] = for half-life: human liver microsomes, standard 60 min incubation; for metabolites observed by LC-MS: stored human liver microsomal incubates
[9] = test system: vitamin K epoxide reductase (VKOR); experiment: VKOR inhibition in FIXgla-PC/HEK293 reporter cells; details: relative to (R)-enantiomer of cubane analogue
[10] = clinically relevant warfarin analogue; cited from earlier work

O=C(NCCN1CCOCC1)c1ccc(Cl)cc1 [compound 9, moclobemide]
locomotor profile / total distance travelled [1]: decrease the total distance travelled by the same amount compared to the vehicle

O=C(OCc1ccccc1)C1=CC=CC=CC=C1 [compound 26]
log P [2]: 3.34 | mite mortality [3]: 75%

CC1(O)CC(C2=CC=CC=CC=C2)c2c(c3ccccc3oc2=O)O1 (stereo not shown) [compound 8, COT-warfarin]
log P [2]: 2.82 | chemical stability [4]: no signs of decomposition

O=C(CCCCCCC(=O)NC12C3C4C5C3C1C5C42)NO (stereo not shown) [compound 16]
IC50 [5]: 0.053 ± 0.004 µg/mL (≈ 0.183 µM) | log P [2]: 1.52 | in vivo activity [6]: identical activity | IC50 [7]: 0.137 ± 0.005 µg/mL (≈ 0.472 µM)

CC(=O)C[C@@H](C1=CC=CC=CC=C1)c1c(O)c2ccccc2oc1=O [(S)-COT]
half-life [8]: 1.83 ± 0.633 h | metabolites observed by LC-MS [8]: substantial peaks exhibiting an M+16

CC(=O)C[C@H](C1=CC=CC=CC=C1)c1c(O)c2ccccc2oc1=O [(R)-COT]
half-life [8]: 2.17 ± 0.333 h | metabolites observed by LC-MS [8]: significant quantities of an M+2 metabolite

O=C(CCCCCCC(=O)NC1=CC=CC=CC=C1)NO [compound 23]
fold less active than SAHA ([5]; MCF7 and MM96L cell lines, relative to SAHA): ca. 2 fold | fold more active than 16 ([5]; MCF7 and MM96L cell lines, relative to cubane derivative 16): ca. 2 fold | IC50 [5]: 0.037 ± 0.003 µg/mL (≈ 0.127 µM) | log P [2]: 1.38 | IC50 [7]: 0.073 ± 0.008 µg/mL (≈ 0.251 µM)

CC(=O)CC(c1c(O)c2ccccc2oc1=O)C12C3C4C5C3C1C5C42 [(S)-cubane analogue]
VKOR inhibition, fold lower activity than the (R)-enantiomer [9]: ca. 3 fold

CC(=O)CC(c1ccc([N+](=O)[O-])cc1)c1c(O)c2ccccc2oc1=O (stereo not shown) [acenocoumarol]
half-life [10]: 10 h

O=C(CCCCCCC(=O)Nc1ccccc1)NO [compound 11, suberanilohydroxamic acid, reference compound]
log P [2]: 0.99 | in vivo activity [6]: identical activity

From publication PMC6436534 (Chemistry (Weinheim an der Bergstrasse, Germany), 2019)
